Source: ChEMBL document CHEMBL5678809, “Preclinical characterization of GLPG0634, a selective inhibitor of JAK1, for the treatment of inflammatory diseases” (J Immunol, 2013)
The source made the active and inactive calls. No cut-off for these calls is given here.

What was measured:
[1] = molecular target: Ribosomal protein S6 kinase alpha-4 (Homo sapiens) (UniProt O75676); test: Inhibition of MSK2 (unknown origin) at 1 uM relative to control
Mus musculus [2] = test: Antiarthritic activity against collagen-induced arthritis DBA/1J mouse model assessed as MCP-3 level in serum at 50 mg/kg, po measured for 4 hrs by luminex analysis (reference value: 224 +/- 15.3 ng/ml); format: functional
[3] = molecular target: Mitogen-activated protein kinase kinase kinase 9 (Homo sapiens) (UniProt P80192); test: Inhibition of MLK1 (unknown origin) at 1 uM relative to control
Mus musculus [4] = test: Antiarthritic activity against collagen-induced arthritis DBA/1J mouse model assessed as LIF level in serum at 50 mg/kg, po measured for 4 hrs by luminex analysis (reference value: 696 +/- 108 ng/ml); format: functional
[5] = molecular target: Serine/threonine-protein kinase WNK2 (Homo sapiens) (UniProt Q9Y3S1); test: Inhibition of WNK2 (unknown origin) at 1 uM relative to control
[6] = molecular target: Serine/threonine-protein kinase 3 (Homo sapiens) (UniProt Q13188); test: Inhibition of MST2 (unknown origin) at 1 uM relative to control
[7] = molecular target: Tyrosine-protein kinase Mer (Homo sapiens, UniProt Q12866); test: Inhibition of Mer (unknown origin)
[8] = molecular target: CDK7/Cyclin H/MNAT1 (Homo sapiens) (UniProt P51946+P50613+P51948); test: Inhibition of CDK7/cyclinH/MAT1 (unknown origin) at 1 uM relative to control; format: protein-complex assay
[9] = molecular target: Ribosomal protein S6 kinase alpha-1 (Homo sapiens) (UniProt Q15418); test: Inhibition of Rsk1 (unknown origin) at 1 uM relative to control
Mus musculus [10] = test: Antiarthritic activity against collagen-induced arthritis DBA/1J mouse model assessed as reduction in RANKL expression at 50 mg/kg, po measured for 4 hrs; format: functional, organism-based
[11] = molecular target: Serine/threonine-protein kinase NLK (Homo sapiens) (UniProt Q9UBE8); test: Inhibition of NLK (unknown origin) at 1 uM relative to control
Mus musculus [12] = test: Antiarthritic activity against collagen-induced arthritis DBA/1J mouse model assessed as reduction in XCL1 level in serum at 50 mg/kg, po measured for 4 hrs by luminex analysis; format: functional, organism-based
[13] = molecular target: Platelet-derived growth factor receptor alpha (Homo sapiens) (UniProt P16234); test: Inhibition of PDGFR2 (unknown origin) at 1 uM relative to control
[14] = molecular target: Tyrosine-protein kinase Lyn (Homo sapiens, UniProt P07948); test: Inhibition of LYNA (unknown origin)
[15] = molecular target: Vascular endothelial growth factor receptor 2 (Homo sapiens) (UniProt P35968); test: Inhibition of KDR (unknown origin) at 1 uM relative to control
[16] = molecular target: Serine/threonine-protein kinase tousled-like 2 (Homo sapiens) (UniProt Q86UE8); test: Inhibition of TLK2 (unknown origin) at 1 uM relative to control
[17] = molecular target: Serine/threonine-protein kinase ULK2 (Homo sapiens) (UniProt Q8IYT8); test: Inhibition of ULK2 (unknown origin) at 1 uM relative to control
[18] = molecular target: Tyrosine-protein kinase ABL2 (Homo sapiens) (UniProt P42684); test: Inhibition of Arg (unknown origin) at 1 uM relative to control
Mus musculus [19] = test: Antiarthritic activity against collagen-induced arthritis DBA/1J mouse model assessed as reduction in IP-10 level in serum at 50 mg/kg, po measured for 4 hrs by luminex analysis; format: functional, organism-based
[20] = molecular target: Tyrosine-protein kinase receptor TYRO3 (Homo sapiens) (UniProt Q06418); test: Inhibition of Rse (unknown origin) at 1 uM relative to control
Mus musculus [21] = test: Antiarthritic activity against collagen-induced arthritis DBA/1J mouse model assessed as reduction in MMP13 expression at 50 mg/kg, po measured for 4 hrs; format: functional, organism-based
[22] = Tmax in Dark Agouti rat at 3 to 30 mg/kg, po; format: ADME, organism-based; conditions: in vivo, dose 3-30 mg/kg
[23] = molecular target: NUAK family SNF1-like kinase 1 (Homo sapiens) (UniProt O60285); test: Inhibition of ARK5 (unknown origin) at 1 uM relative to control
[24] = molecular target: Calcium/calmodulin-dependent protein kinase type IV (Homo sapiens) (UniProt Q16566); test: Inhibition of CaMK4 (unknown origin) at 1 uM relative to control
Mus musculus [25] = test: Antiarthritic activity against collagen-induced arthritis DBA/1J mouse model assessed as MIP-1beta level in serum at 50 mg/kg, po measured for 4 hrs by luminex analysis (reference value: 203.4= +/- 20.8 ng/ml); format: functional
[26] = molecular target: Death-associated protein kinase 3 (Homo sapiens) (UniProt O43293); test: Inhibition of ZIPK (unknown origin) at 1 uM relative to control
[27] = Volume of distribution at steady state in CD-1 mouse at 1 mg/kg, iv measured upto 8 hrs by LC-MS analysis; format: ADME, organism-based; conditions: in vivo, read-out: Vdss
[28] = Tmax in CD-1 mouse at 5 mg/kg, po measured upto 24 hrs by LC-MS analysis; format: ADME, organism-based; conditions: in vivo
[29] = Cmax in Sprague-Dawley rat at 1 mg/kg, iv measured upto 8 hrs by LC-MS analysis; format: ADME, organism-based; conditions: in vivo
[30] = molecular target: Calcium/calmodulin-dependent protein kinase type 1 (Homo sapiens) (UniProt Q14012); test: Inhibition of CaMK1 (unknown origin) at 1 uM relative to control
[31] = molecular target: Ephrin type-B receptor 4 (Homo sapiens) (UniProt P54760); test: Inhibition of EphB4 (unknown origin) at 1 uM relative to control
[32] = molecular target: Dual specificity mitogen-activated protein kinase kinase 6 (Homo sapiens) (UniProt P52564); test: Inhibition of MKK6 (unknown origin) at 1 uM relative to control
[33] = molecular target: Protein-tyrosine kinase 2-beta (Homo sapiens) (UniProt Q14289); test: Inhibition of Pyk2 (unknown origin) at 1 uM relative to control
[34] = molecular target: Cyclin-dependent kinase 2 (Homo sapiens, UniProt P24941); test: Inhibition of CDK2 (unknown origin)
[35] = molecular target: Proto-oncogene tyrosine-protein kinase Src (Homo sapiens) (UniProt P12931); test: Inhibition of Src (unknown origin) (1 to 530 residues) at 1 uM relative to control
[36] = molecular target: Mitogen-activated protein kinase 1 (Homo sapiens) (UniProt P28482); test: Inhibition of MAPK1 (unknown origin) at 1 uM relative to control
[37] = molecular target: Serine/threonine-protein kinase Nek2 (Homo sapiens) (UniProt P51955); test: Inhibition of NEK2 (unknown origin) at 1 uM relative to control
Mus musculus [38] = test: Antiarthritic activity against collagen-induced arthritis DBA/1J mouse model assessed as SCF level in serum at 50 mg/kg, po measured for 4 hrs by luminex analysis (reference value: 672.4 +/- 242.2 ng/ml); format: functional
RPMI-8226 = test: Inhibition of human […] cell differentiation assessed as effect on IL-4 mRNA expression by RT-PCR analysis; format: functional, cell-based; conditions: dose 0.1-10 µM

Sequence of Tyrosine-protein kinase Mer (Q12866 whole entry): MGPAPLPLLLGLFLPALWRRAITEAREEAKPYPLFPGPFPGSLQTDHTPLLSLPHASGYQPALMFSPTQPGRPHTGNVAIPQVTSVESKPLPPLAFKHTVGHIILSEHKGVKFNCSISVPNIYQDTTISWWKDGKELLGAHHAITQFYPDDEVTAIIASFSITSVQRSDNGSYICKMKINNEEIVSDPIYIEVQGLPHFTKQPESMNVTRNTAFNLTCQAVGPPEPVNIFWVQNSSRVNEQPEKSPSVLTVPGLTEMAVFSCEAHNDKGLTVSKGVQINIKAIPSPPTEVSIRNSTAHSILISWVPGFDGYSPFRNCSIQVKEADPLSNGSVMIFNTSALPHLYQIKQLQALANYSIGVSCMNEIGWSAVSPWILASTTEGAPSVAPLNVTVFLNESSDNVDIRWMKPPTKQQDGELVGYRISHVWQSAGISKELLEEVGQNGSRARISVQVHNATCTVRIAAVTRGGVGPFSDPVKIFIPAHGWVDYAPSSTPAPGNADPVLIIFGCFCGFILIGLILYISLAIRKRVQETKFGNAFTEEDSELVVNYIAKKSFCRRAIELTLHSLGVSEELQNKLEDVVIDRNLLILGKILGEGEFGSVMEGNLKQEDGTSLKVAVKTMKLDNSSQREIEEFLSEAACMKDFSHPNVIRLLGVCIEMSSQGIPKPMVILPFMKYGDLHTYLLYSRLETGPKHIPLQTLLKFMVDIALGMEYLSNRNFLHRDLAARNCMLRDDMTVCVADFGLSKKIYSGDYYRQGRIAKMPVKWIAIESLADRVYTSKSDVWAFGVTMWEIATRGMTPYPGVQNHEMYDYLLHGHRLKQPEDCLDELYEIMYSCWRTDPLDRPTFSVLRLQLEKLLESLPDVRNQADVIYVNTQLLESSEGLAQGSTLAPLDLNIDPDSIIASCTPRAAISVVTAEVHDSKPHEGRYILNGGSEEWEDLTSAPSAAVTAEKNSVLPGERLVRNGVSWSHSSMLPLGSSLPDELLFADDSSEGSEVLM
Sequence of Ephrin type-B receptor 4 (Homo sapiens) (P54760 whole entry): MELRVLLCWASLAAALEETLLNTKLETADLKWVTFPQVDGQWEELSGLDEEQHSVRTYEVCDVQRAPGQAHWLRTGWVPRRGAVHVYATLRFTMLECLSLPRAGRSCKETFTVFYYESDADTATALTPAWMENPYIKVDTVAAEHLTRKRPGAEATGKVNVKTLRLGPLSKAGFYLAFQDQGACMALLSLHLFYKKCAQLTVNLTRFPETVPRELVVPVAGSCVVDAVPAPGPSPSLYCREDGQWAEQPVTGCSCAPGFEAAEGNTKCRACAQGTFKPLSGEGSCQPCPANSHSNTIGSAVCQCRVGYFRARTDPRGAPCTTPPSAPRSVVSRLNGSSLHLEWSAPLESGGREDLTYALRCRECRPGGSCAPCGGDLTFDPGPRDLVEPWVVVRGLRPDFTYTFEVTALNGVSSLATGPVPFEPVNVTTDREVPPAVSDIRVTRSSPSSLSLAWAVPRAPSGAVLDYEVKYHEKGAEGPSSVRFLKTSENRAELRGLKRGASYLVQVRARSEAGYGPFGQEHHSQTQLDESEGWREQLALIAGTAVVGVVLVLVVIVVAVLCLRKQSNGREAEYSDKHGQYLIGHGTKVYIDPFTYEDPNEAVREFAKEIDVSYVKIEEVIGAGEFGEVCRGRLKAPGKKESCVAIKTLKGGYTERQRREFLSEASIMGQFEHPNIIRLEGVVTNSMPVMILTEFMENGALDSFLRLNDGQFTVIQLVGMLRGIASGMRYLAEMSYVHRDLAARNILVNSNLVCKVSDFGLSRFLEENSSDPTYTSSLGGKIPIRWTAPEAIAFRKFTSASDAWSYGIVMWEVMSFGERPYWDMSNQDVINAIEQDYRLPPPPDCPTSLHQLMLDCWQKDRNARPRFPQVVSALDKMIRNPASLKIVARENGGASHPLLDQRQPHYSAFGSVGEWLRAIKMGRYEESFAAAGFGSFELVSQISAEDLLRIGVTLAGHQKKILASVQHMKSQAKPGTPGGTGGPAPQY
Sequence of Serine/threonine-protein kinase WNK2 (Homo sapiens) (Q9Y3S1 whole entry): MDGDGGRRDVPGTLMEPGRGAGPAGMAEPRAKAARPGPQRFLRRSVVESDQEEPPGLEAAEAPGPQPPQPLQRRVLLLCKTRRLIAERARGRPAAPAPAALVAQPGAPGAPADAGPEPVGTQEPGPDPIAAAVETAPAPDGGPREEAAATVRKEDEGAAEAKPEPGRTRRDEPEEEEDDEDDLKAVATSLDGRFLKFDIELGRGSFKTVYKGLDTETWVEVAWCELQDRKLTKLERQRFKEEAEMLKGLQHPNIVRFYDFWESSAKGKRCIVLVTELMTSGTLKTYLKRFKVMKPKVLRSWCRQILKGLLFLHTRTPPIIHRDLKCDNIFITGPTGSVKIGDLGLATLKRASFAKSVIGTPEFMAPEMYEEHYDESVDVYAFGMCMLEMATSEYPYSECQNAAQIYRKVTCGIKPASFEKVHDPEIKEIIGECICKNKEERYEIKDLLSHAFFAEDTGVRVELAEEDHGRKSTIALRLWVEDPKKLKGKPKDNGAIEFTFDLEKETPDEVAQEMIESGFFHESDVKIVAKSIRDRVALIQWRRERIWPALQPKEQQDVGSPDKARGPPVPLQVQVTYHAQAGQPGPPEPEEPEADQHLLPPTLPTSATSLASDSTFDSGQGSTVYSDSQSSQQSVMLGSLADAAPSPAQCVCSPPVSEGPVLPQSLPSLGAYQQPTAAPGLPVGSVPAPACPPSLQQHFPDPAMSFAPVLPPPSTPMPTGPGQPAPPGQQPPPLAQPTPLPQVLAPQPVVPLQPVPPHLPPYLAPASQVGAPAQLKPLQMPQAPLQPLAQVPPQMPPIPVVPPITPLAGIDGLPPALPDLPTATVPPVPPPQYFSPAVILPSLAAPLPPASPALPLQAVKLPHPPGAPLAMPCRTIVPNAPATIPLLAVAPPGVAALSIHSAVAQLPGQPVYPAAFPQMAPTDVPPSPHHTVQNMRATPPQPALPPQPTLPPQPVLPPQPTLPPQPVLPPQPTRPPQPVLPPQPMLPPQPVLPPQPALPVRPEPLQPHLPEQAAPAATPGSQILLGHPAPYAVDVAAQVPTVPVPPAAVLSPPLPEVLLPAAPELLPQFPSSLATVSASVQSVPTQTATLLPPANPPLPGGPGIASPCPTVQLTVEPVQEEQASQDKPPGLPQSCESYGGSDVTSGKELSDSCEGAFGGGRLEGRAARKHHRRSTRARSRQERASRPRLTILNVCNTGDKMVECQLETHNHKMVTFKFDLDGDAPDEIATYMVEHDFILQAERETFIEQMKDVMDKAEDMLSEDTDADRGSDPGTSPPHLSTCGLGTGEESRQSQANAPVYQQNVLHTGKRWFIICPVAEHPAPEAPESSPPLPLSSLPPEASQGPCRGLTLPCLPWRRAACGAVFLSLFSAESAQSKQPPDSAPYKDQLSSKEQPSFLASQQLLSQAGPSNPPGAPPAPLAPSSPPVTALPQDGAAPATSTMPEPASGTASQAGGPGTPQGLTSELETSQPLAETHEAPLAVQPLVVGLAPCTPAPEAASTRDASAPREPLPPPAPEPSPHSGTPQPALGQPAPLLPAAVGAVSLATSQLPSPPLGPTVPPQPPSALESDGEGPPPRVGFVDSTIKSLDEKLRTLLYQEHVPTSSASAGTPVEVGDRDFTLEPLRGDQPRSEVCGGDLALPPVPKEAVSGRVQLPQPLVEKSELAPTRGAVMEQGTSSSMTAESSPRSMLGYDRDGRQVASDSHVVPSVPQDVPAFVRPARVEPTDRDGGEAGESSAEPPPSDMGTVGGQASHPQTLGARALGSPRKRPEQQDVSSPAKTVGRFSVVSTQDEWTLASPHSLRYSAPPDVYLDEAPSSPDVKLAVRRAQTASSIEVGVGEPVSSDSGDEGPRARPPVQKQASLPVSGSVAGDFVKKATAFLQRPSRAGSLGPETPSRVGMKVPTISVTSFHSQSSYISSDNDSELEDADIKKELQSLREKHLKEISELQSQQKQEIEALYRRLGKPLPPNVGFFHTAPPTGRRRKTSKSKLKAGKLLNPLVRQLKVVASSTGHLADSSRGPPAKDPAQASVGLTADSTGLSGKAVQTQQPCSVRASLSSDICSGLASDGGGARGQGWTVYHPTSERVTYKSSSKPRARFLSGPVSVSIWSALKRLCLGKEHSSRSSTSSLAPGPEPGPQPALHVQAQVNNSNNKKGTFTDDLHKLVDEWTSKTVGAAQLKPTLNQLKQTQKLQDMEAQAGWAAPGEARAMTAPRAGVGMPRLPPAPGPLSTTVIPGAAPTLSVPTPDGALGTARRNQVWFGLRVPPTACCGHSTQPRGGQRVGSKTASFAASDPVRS
Sequence of Dual specificity mitogen-activated protein kinase kinase 6 (Homo sapiens) (P52564 whole entry): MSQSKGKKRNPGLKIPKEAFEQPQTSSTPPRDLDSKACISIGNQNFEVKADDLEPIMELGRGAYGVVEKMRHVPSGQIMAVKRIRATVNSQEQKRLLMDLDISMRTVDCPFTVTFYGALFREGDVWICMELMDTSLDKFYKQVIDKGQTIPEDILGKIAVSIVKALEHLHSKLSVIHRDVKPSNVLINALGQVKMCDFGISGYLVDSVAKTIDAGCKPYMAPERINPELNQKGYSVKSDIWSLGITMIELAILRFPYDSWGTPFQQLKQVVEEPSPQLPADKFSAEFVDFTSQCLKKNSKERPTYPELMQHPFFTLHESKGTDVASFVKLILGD
Sequence of Calcium/calmodulin-dependent protein kinase type 1 (Homo sapiens) (Q14012 whole entry, looked up): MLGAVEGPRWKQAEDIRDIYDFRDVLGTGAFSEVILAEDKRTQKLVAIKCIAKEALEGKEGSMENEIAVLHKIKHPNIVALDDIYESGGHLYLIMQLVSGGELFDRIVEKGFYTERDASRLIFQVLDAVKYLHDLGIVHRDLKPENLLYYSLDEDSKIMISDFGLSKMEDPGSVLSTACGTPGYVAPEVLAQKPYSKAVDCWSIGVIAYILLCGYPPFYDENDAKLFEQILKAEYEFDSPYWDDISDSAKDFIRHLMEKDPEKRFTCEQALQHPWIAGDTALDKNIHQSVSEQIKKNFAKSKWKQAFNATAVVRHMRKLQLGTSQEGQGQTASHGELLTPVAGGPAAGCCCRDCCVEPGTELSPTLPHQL

With O=C(Nc1nc2cccc(-c3ccc(CN4CCS(=O)(=O)CC4)cc3)n2n1)C1CC1 [FILGOTINIB] the inhibition [1] was 7%, the Activity (Mus musculus [2]) was 153.8 ng/mL and the inhibition [3] was 1%. The Activity (Mus musculus [4]) was 743.8 ng/mL, the inhibition [5] was -1% and the inhibition [6] was -10%. For the same compound, the IC50 [7] was 1.27 µM, the inhibition [8] was 12% and the inhibition [9] was 2%. For the same compound, the Activity (Mus musculus [10]) was “Active”, the inhibition [11] was -6% and the Activity (Mus musculus [12]) was “Active”. The inhibition [13] was -10%, the IC50 [14] was greater than 10 µM and the inhibition [15] was 28%. It also gave an inhibition [16] of -6%, an inhibition [17] of -8% and an inhibition [18] of 14%. For the same compound, the Activity (Mus musculus [19]) was “Active”, the inhibition [20] was 4% and the Activity (Mus musculus [21]) was “Active”. The Tmax [22] was roughly 60 min, the inhibition [23] was 1% and the inhibition [24] was -5%. The Activity (Mus musculus [25]) was 143 ng/mL, the inhibition [26] was 3% and the Vd [27] was 6 L/kg. The Tmax [28] was 30 min, the Cmax [29] was 1410 ng/mL and the inhibition [30] was -4%. It also gave an inhibition [31] of 5%, an inhibition [32] of -6% and an inhibition [33] of -8%. It also gave an IC50 [34] greater than 10 µM, an inhibition [35] of 32% and an inhibition [36] of 1%. For the same compound, the inhibition [37] was -10%, the Activity (Mus musculus [38]) was 422.6 ng/mL and the inhibition (RPMI-8226) was “Dose-Dependent Effect”.
